From US9403850B2, “Beta-lactamase inhibitors” (priority 2013, dated 2016)

How the values were obtained:
[1] = system: E. cloacae 144200 expressing Class C P99 AmpC; assay: Broth microdilution MIC assay, partner ceftazidime;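 further: ceftazidime held fixed at 4 µg/mL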; type: cell-based; conditions: Enterobacter cloacae, read-out: MIC of Exemplary Compounds in presence of fixed β-lactams, Fixed CAZ, E. cl. 144200 p99 AmpC
[2] = system: E. coli ESBL4 expressing CTX-M-15; assay: Broth microdilution MIC assay, partner ceftazidime;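 further: ceftazidime held fixed at 4 µg/mL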; type: cell-based; conditions: Escherichia coli, read-out: MIC of Exemplary Compounds in presence of fixed β-lactams, Fixed CAZ, E. coli ESBL4 CTX-M-15
[3] = biological target: T1, p99 AmpC (Enterobacter cloacae, UniProt P05364); assay: β-Lactamase enzyme inhibition assay, p99 AmpC (nitrocefin substrate); type: biochemical; conditions: nitrocefin substrate 100 μM, 15 min preincubation at 37° C.; read-out: IC50, Class C AmpC
T1 construct: expressed as native untagged proteins; made in house; host or cells: E. coli BL21(DE3)
T1 sequence (P05364 21-381): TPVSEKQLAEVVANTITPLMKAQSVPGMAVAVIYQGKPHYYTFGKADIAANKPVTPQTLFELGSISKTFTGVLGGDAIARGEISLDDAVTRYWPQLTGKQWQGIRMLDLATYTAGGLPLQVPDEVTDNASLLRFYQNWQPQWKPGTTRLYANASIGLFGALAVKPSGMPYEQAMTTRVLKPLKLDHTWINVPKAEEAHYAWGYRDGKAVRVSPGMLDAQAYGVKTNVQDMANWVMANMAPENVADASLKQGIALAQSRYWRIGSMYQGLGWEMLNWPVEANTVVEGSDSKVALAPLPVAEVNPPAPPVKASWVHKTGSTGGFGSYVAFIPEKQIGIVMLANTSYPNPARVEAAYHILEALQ
Experimental: (§1) For SHV-5, Kpc-2, p99AmpC and OXA-1 β-lactamases, E. coli BL21(DE3) bacterial cells carrying expression plasmids (expressed as native untagged proteins) for the individual β-lactamases were grown in 1 L of Superbroth (Teknova Inc. Hollister, CA) supplemented with 100 μg/ml kanamycin selection and 1×5052 (0.5% glycerol, 0.05% glucose and 0.2% α-lactose) at 35° C. for 18-20 hours. Cells were harvested by centrifugation (4,000×g, 4° C., 20 min), resuspended in 50 ml of 10 mM HEPES pH 7.5 (1/20 of the initial volume). The cells were lysed by sonication (5 pulses of 45 seconds) at 45 W on ice. The lysates were clarified by centrifugation at 10,000×g for 40 minutes at 4° C. […] Active fractions were pooled concentrated, quantitated by BCA protein determination (Thermo Scientific, Rockford, Ill.), dialyzed into PBS and frozen at −80° C. in 20% glycerol until use.
(§2) An equal volume of diluted enzyme stock was added, and the plates were incubated at 37° C. for 15 min. […] Absorbance at 486 nm was immediately monitored for 10 min using a Biotek Powerwave XS2 microplate spectrophotometer using the GEN5 softweare package (Biotek Instruments, Winooski Vt.). […] Maximum rates of hydrolysis were compared to those in control wells (without inhibitors), and percentages of enzyme inhibition were calculated for each concentration of inhibitor. […]

[4] = biological target: T2, KPC-2 (Klebsiella pneumoniae, UniProt Q9F663); assay: β-Lactamase enzyme inhibition assay, KPC-2 (imipenem substrate); type: biochemical; conditions: 15 min preincubation at 37° C., read-out: IC50, Class A KPC-2
T2 construct: expressed as native untagged proteins; made in house; host or cells: E. coli BL21(DE3)
T2 sequence (Q9F663 25-293 limits assumed): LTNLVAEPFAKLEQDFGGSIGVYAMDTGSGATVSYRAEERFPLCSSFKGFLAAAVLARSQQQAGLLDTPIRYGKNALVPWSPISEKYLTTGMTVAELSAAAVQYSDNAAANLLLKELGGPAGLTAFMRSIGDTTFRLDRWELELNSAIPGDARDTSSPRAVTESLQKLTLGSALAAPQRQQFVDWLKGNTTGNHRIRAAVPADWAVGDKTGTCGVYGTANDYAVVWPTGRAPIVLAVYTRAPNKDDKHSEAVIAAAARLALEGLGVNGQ
Experimental: as §1, §2

[5] = system: K. pneumoniae A-1797 expressing KPC-2 and VIM-4; assay: Broth microdilution MIC assay, partner meropenem; type: cell-based; conditions: Klebsiella pneumoniae, read-out: MIC of Exemplary Compounds in presence of fixed β-lactams, Fixed Mero, K.P. A-1797 KPC-2 VIM-4
[6] = system: S. aureus MSSA-7 producing penicillinase PC-1; assay: Broth microdilution MIC assay, partner piperacillin; type: cell-based; conditions: Staphylococcus aureus, fixed piperacillin 4 μg/mL, read-out: MIC of Exemplary Compounds in presence of fixed β-lactams, Fixed Pip, S. aureus MSSA-7 PC-1
[7] = biological target: T3, SHV-5 (Klebsiella pneumoniae, UniProt P0A3M1); assay: β-Lactamase enzyme inhibition assay, SHV-5 (cefotaxime substrate); type: biochemical; conditions: 15 min preincubation at 37° C., read-out: IC50, Class A SHV-5
T3 construct: expressed as native untagged proteins; made in house; host or cells: E. coli BL21(DE3)
T3 sequence (P0A3M1 22-286): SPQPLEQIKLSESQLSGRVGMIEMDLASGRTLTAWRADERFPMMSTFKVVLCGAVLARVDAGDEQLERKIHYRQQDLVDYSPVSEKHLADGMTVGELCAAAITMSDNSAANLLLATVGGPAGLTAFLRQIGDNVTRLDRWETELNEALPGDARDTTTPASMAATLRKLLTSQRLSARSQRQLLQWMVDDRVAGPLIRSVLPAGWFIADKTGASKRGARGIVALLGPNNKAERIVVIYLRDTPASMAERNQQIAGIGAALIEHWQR
Experimental: as §1, §2

[8] = system: K. pneumoniae 156319 expressing KPC-3; assay: Broth microdilution MIC assay, partner meropenem; type: cell-based; conditions: Klebsiella pneumoniae, read-out: MIC of Exemplary Compounds in presence of fixed β-lactams, Fixed Mero, K.P. 156319 KPC-3
[9] = system: P. aeruginosa Ps296 expressing VIM-2; assay: Broth microdilution MIC assay, partner meropenem; type: cell-based; conditions: Pseudomonas aeruginosa, read-out: MIC of Exemplary Compounds in presence of fixed β-lactams, Fixed Mero, P. aerug. Ps296 VIM-2
[10] = biological target: T4, OXA-1 (Escherichia coli, UniProt P13661); assay: β-Lactamase enzyme inhibition assay, OXA-1 (nitrocefin substrate); type: biochemical; conditions: nitrocefin substrate 100 μM, 15 min preincubation at 37° C.; read-out: IC50, Class D OXA-1
T4 construct: expressed as native untagged proteins; made in house; host or cells: E. coli BL21(DE3)
T4 sequence (P13661 26-276): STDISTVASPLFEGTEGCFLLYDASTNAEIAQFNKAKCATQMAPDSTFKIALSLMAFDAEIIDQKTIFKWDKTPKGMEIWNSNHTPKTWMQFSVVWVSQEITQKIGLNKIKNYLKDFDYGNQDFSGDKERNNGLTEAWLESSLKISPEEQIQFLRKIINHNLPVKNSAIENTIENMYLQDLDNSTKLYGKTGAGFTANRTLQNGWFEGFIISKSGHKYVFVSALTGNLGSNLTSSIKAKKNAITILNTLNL
Experimental: as §1, §2

[11] = biological target: T5, VIM-2 (Escherichia coli, UniProt Q5U7L7); assay: β-Lactamase enzyme inhibition assay, VIM-2 (nitrocefin substrate); type: biochemical; conditions: nitrocefin substrate 100 μM, 15 min preincubation at 37° C.; read-out: IC50, Class B VIM-2
T5 construct: made in house; host or cells: E. coli BL21(DE3)
Outline: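 Purified VIM-2 (Q sepharose anion exchange, HEPES pH 7.5) preincubated with inhibitor 15 min at 37° C. Nitrocefin added at 100 μM final; absorbance at 486 nm monitored 10 min. IC50 from inhibition of initial hydrolysis rate versus inhibitor-free controls.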

| Compound | MIC [1] [µg/mL] | MIC [2] [µg/mL] | IC50 [3] [nM] | IC50 [4] [nM] | MIC [5] [µg/mL] | MIC [6] [µg/mL] | IC50 [7] [nM] | MIC [8] [µg/mL] | MIC [9] [µg/mL] | IC50 [10] [nM] | IC50 [11] [nM] |
| --- | --- | --- | --- | --- | --- | --- | --- | --- | --- | --- | --- |
| O=C(Cc1ccc2c(c1)CNC2)N[C@H]1Cc2cccc(C(=O)O)c2OB1O [Example 36, (3R)-2-hydroxy-3-[(2-isoindolin-5-ylacetyl)amino]-3,4-dihydro-1,2-benzoxaborinine-8-carboxylic acid] | < 4 | < 4 | < 100 | < 100 | > 32 | < 4 | < 100 | < 4 | < 4 | < 100 | 100 to 1000 |
| NCCNC(=O)c1ccccc1C(=O)N[C@H]1Cc2cccc(C(=O)O)c2OB1O [Example 54, (R)-3-(2-(2-aminoethylcarbamoyl)benzamido)-2-hydroxy-3,4-dihydro-2H-benzo[e][1,2]oxaborinine-8-carboxylic acid] | < 4 | < 4 |  |  | > 32 | > 32 |  | 8 to 32 | < 4 |  | 1000 to 10000 |
| CC(C)NCc1cc(C(=O)N[C@H]2Cc3cccc(C(=O)O)c3OB2O)ccc1CN [Example 55, (R)-3-(4-(aminomethyl)-3-((isopropylamino)methyl)benzamido)-2-hydroxy-3,4-dihydro-2H-benzo[e][1,2]oxaborinine-8-carboxylic acid] | < 4 | < 4 |  |  | > 32 | > 32 |  | 8 to 32 | < 4 |  | 100 to 1000 |
| CC(C)NCc1ccc(C(=O)N[C@H]2Cc3cccc(C(=O)O)c3OB2O)cc1CNC(C)C [Example 56, (R)-3-(3,4-bis((isopropylamino)methyl)benzamido)-2-hydroxy-3,4-dihydro-2H-benzo[e][1,2]oxaborinine-8-carboxylic acid] | < 4 | < 4 |  |  | < 4 | < 4 |  | < 4 | < 4 |  | 100 to 1000 |
| NCCNc1ccc(CC(=O)N[C@H]2Cc3cccc(C(=O)O)c3OB2O)cc1 [Example 57, (R)-3-(2-(4-(2-aminoethylamino)phenyl)acetamido)-2-hydroxy-3,4-dihydro-2H-benzo[e][1,2]oxaborinine-8-carboxylic acid] | < 4 | < 4 |  |  | < 4 | < 4 |  | 8 to 32 | < 4 |  | 1000 to 10000 |
| NCCOc1ccc(CC(=O)N[C@H]2Cc3cccc(C(=O)O)c3OB2O)cc1OCCN [Example 58, (R)-3-(2-(3,4-bis(2-aminoethoxy)phenyl)acetamido)-2-hydroxy-3,4-dihydro-2H-benzo[e][1,2]oxaborinine-8-carboxylic acid] | < 4 | < 4 |  |  | 8 to 32 | < 4 |  | < 4 | < 4 |  | 100 to 1000 |
| NCCOc1ccc(CC(=O)N[C@H]2Cc3cccc(C(=O)O)c3OB2O)cc1O [Example 59, (R)-3-(2-(4-(2-aminoethoxy)-3-hydroxyphenyl)acetamido)-2-hydroxy-3,4-dihydro-2H-benzo[e][1,2]oxaborinine-8-carboxylic acid] | < 4 | < 4 |  |  | 8 to 32 | < 4 |  | < 4 | < 4 |  | 100 to 1000 |
| NCCNc1ccc(CC(=O)N[C@H]2Cc3cccc(C(=O)O)c3OB2O)cn1 [Example 60, (R)-3-(2-(6-(2-aminoethylamino)pyridin-3-yl)acetamido)-2-hydroxy-3,4-dihydro-2H-benzo[e][1,2]oxaborinine-8-carboxylic acid] | < 4 | < 4 |  |  | 8 to 32 | < 4 |  | < 4 | < 4 |  | 100 to 1000 |
| NCCNc1ccc(CC(=O)N[C@H]2Cc3cccc(C(=O)O)c3OB2O)c[n+]1[O-] [Example 61, (R)-2-(2-aminoethylamino)-5-(2-(8-carboxy-2-hydroxy-3,4-dihydro-2H-benzo[e][1,2]oxaborinin-3-ylamino)-2-oxoethyl)pyridine 1-oxide] | < 4 | < 4 |  |  | < 4 | < 4 |  | < 4 | < 4 |  | 100 to 1000 |
| NCc1cc(C(=O)N[C@H]2Cc3cccc(C(=O)O)c3OB2O)cnc1CN [Example 62, (R)-3-(5,6-bis(aminomethyl)nicotinamido)-2-hydroxy-3,4-dihydro-2H-benzo[e][1,2]oxaborinine-8-carboxylic acid] | < 4 | < 4 |  |  | < 4 | < 4 |  | < 4 | < 4 |  | 100 to 1000 |
| NCc1cnc(C(=O)N[C@H]2Cc3cccc(C(=O)O)c3OB2O)cc1CN [Example 63] | < 4 | < 4 |  |  | < 4 | < 4 |  | < 4 | < 4 |  | < 100 |
